From patent publication US11279687B2, “Compounds and compositions for the inhibition of NAMPT” (Valo Health, Inc., priority 2010, dated 2022)

Legend:
[1] = target: NAMPT (Homo sapiens (Human), UniProt P43490); assay: NAMPT biochemical inhibition assay (NMN quantified by mass spectrometry); details: NAMPT biochemical inhibition; read-out: Biochem IC50
[2] = system: A2780 cells; assay: In-vitro cell proliferation assay (SRB), A2780 cells; assay type: cell-based; details: Homo sapiens, A2780, 72 h, A2780 cells, 72 hours, SRB; read-out: A2780 IC50;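 further: viable cell number read as SRB absorbance, background from media-only wells subtracted, IC50 interpolated from percent inhibition at two bracketing compound concentrations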

NAMPT, sequence (P43490 whole entry): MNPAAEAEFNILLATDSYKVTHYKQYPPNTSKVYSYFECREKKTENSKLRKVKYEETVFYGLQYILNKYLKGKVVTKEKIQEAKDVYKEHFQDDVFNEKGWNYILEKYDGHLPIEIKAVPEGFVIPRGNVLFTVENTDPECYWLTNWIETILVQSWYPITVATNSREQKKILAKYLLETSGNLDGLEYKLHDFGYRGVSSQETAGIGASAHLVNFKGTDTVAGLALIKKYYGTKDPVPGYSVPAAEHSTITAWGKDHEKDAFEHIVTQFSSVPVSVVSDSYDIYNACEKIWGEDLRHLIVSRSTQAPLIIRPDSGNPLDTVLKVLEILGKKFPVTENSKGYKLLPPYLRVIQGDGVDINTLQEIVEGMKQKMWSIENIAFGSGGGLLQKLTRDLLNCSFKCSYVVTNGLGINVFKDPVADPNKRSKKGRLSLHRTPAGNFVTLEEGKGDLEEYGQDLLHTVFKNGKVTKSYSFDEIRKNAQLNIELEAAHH

Row | Structure (SMILES) | IC50 [1] [nM] | IC50 [2] [nM]
1 | COc1cc(F)c(S(=O)(=O)c2ccc(NC(=O)NCc3cccnc3)cc2)cc1F [3-{4-[(2,5-difluoro-4-methoxybenzene)sulfonyl]phenyl}-1-(pyridin-3-ylmethyl)urea] | 4 | 105
2 | O=C(NCc1cccnc1)Nc1ccc(S(=O)(=O)c2cc(F)ccc2F)cc1 [3-{4-[(2,5-difluorobenzene)sulfonyl]phenyl}-1-(pyridin-3-ylmethyl)urea] | 4 | 403
3 | Cc1ccc(C)c(S(=O)(=O)c2ccc(NC(=O)NCc3cccnc3)cc2)c1 [3-{4-[(2,5-dimethylbenzene)sulfonyl]phenyl}-1-(pyridin-3-ylmethyl)urea] | 14 | 473
4 | Cc1ccc(C)c(NS(=O)(=O)c2ccc(NC(=O)NCc3cccnc3)cc2)c1 [3-{4-[(2,5-dimethylphenyl)sulfamoyl]phenyl}-1-(pyridin-3-ylmethyl)urea] | 6 | 116
5 | COc1cccc(OC)c1S(=O)(=O)c1ccc(NC(=O)NCc2cccnc2)cc1 [3-{4-[(2,6-dimethoxybenzene)sulfonyl]phenyl}-1-(pyridin-3-ylmethyl)urea] | 7 | 26
6 | Cc1cccc(C)c1S(=O)(=O)c1ccc(NC(=O)NCc2cccnc2)cc1 [3-{4-[(2,6-dimethylbenzene)sulfonyl]phenyl}-1-(pyridin-3-ylmethyl)urea] | 8 | 387
7 | O=C(NCc1cccnc1)Nc1ccc(S(=O)(=O)c2ccccc2Br)cc1 [3-{4-[(2-bromobenzene)sulfonyl]phenyl}-1-(pyridin-3-ylmethyl)urea] | 6 | 250
8 | Cc1ccc(F)c(S(=O)(=O)c2ccc(NC(=O)NCc3cccnc3)cc2)c1Cl [3-{4-[(2-chloro-6-fluoro-3-methylbenzene)sulfonyl]phenyl}-1-(pyridin-3-ylmethyl)urea] | 7 | 336
9 | O=C(NCc1cccnc1)Nc1ccc(S(=O)(=O)c2ccccc2Cl)cc1 [3-{4-[(2-chlorobenzene)sulfonyl]phenyl}-1-(pyridin-3-ylmethyl)urea] | 5 | 475
10 | O=C(NCc1cccnc1)Nc1ccc(S(=O)(=O)Nc2ccccc2Cl)cc1 [3-{4-[(2-chlorophenyl)sulfamoyl]phenyl}-1-(pyridin-3-ylmethyl)urea] | 3 | 41
11 | CCOc1ccccc1S(=O)(=O)c1ccc(NC(=O)NCc2cccnc2)cc1 [3-{4-[(2-ethoxybenzene)sulfonyl]phenyl}-1-(pyridin-3-ylmethyl)urea] | 2 | 0.4

The remaining molecules from weak to strong by IC50 [1], led by results:

Row | IC50 [1] [nM] | IC50 [2] [nM] | Structure (SMILES)
12 | 2 | 326 | CC(=O)c1ccccc1S(=O)(=O)c1ccc(NC(=O)NCc2cccnc2)cc1 [3-{4-[(2-acetylbenzene)sulfonyl]phenyl}-1-(pyridin-3-ylmethyl)urea]
13 | 2 | 24 | O=C(NCc1cccnc1)Nc1ccc(S(=O)(=O)Nc2ccccc2Br)cc1 [3-{4-[(2-bromophenyl)sulfamoyl]phenyl}-1-(pyridin-3-ylmethyl)urea]
14 | 1.2 | 4 | COc1ccc(OC)c(NS(=O)(=O)c2ccc(NC(=O)NCc3cccnc3)cc2)c1 [3-{4-[(2,5-dimethoxyphenyl)sulfamoyl]phenyl}-1-(pyridin-3-ylmethyl)urea]
15 | 1 | 7 | COc1ccc(OC)c(S(=O)(=O)c2ccc(NC(=O)NCc3cccnc3)cc2)c1 [3-{4-[(2,5-dimethoxybenzene)sulfonyl]phenyl}-1-(pyridin-3-ylmethyl)urea]
16 | 1 | 32 | Cc1ccc(NS(=O)(=O)c2ccc(NC(=O)NCc3cccnc3)cc2)c(Cl)c1 [3-{4-[(2-chloro-4-methylphenyl)sulfamoyl]phenyl}-1-(pyridin-3-ylmethyl)urea]
17 | 0.9 | 36 | O=C(NCc1cccnc1)Nc1ccc(S(=O)(=O)Nc2ccc(F)cc2Cl)cc1 [3-{4-[(2-chloro-4-fluorophenyl)sulfamoyl]phenyl}-1-(pyridin-3-ylmethyl)urea]
